In series [1] the target is T1, Integrin alpha-4/beta-1 (Homo sapiens, UniProt P05556+P13612). The series can be described thus: Inhibition of VCAM-1 binding to integrin alpha4-beta1 in Jurkat cells at 10 uM. Format: cell-based.
Series [2] concerns the target T1, Integrin alpha-4/beta-1. The series can be described thus: Inhibition of VCAM-1 binding to integrin alpha4-beta1 of Jurkat cells. It is filed as cell-based.
The nature of series [3]: Partition coefficient (logP). Format: physicochemical. As to conditions: octanol/water.
Series [4] is described as follows: Inhibition of VCAM-1 binding to integrin alpha9/beta1 in Jurkat cells. It is filed as cell-based, Homo sapiens.
For series [5], the target named is Integrin alpha-V/beta-3 (Homo sapiens, UniProt P05106+P06756). The series can be described thus: Inhibition of VCAM-1 binding to integrin alphaV-beta3 in Jurkat cells. It is filed as cell-based.
Series [6] can be described thus: Half life (t1/2) determined at a dose 10 mg/kg administered intraperitoneally to mice. It is filed as ADME, organism-based. Conditions: mouse, in vivo, ip. More on the design: dose 10 mg/kg, route intraperitoneal.
Series [7] can be described thus: Maximal concentration determined at a dose 10 mg/kg administered intraperitoneally to mice. It is filed as ADME, organism-based. More on the design: dose 10 mg/kg, route intraperitoneal. As to conditions: mouse, in vivo, ip.
Series [8] is described as follows: Area under curve (AUC) determined at a dose 10 mg/kg administered intraperitoneally to mice. More on the design: dose 10 mg/kg, route intraperitoneal. It is filed as ADME, organism-based. Conditions: mouse, in vivo, ip.

T1 sequence (P05556 whole entry): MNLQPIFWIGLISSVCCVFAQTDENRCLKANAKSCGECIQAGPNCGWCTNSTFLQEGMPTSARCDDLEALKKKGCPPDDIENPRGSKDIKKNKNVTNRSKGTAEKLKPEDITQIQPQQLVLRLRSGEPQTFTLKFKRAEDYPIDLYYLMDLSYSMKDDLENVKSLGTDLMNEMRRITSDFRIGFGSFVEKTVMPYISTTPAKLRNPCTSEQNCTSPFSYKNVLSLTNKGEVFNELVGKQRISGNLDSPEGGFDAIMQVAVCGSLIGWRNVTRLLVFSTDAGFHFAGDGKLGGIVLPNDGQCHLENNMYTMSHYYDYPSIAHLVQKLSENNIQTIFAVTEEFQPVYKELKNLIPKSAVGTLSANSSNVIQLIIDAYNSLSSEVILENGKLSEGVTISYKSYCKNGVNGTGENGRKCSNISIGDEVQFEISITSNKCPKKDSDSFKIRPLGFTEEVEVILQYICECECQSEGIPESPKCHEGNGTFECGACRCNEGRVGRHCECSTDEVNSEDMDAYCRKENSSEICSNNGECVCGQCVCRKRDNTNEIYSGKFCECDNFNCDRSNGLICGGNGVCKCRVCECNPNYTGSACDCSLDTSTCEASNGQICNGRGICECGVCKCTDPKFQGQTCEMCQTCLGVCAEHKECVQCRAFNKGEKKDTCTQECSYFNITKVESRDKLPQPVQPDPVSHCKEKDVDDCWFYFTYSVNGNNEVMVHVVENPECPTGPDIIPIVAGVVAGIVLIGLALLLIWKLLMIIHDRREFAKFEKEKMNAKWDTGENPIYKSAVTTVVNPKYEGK
T1 sequence (P13612 whole entry): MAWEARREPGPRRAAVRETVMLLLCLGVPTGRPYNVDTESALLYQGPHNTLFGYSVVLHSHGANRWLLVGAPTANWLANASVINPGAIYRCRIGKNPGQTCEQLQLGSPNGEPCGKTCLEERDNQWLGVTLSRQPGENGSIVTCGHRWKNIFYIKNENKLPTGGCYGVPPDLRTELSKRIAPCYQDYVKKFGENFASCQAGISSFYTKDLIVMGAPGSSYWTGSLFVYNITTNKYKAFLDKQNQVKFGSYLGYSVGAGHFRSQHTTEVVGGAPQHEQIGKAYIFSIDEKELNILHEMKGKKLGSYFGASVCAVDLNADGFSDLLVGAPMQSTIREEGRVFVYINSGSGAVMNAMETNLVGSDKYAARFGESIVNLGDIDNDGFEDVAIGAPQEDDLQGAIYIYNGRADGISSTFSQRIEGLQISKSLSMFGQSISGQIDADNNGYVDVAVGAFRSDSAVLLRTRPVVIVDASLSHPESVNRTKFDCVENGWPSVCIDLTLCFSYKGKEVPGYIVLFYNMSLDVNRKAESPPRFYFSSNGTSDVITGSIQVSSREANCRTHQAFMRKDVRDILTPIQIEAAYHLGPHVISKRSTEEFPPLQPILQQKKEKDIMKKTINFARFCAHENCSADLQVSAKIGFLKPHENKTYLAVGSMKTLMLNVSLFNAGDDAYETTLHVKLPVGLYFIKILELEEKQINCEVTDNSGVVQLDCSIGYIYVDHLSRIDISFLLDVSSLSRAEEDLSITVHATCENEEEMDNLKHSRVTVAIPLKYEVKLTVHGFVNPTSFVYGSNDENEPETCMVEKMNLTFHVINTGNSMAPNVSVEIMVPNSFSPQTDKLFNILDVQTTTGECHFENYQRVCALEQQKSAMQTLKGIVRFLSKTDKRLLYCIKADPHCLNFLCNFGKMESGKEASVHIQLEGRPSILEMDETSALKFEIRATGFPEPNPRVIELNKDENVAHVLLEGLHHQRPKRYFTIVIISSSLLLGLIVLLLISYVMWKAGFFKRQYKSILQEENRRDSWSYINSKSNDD
Integrin alpha-V/beta-3, sequence (P05106 27-788 limits assumed): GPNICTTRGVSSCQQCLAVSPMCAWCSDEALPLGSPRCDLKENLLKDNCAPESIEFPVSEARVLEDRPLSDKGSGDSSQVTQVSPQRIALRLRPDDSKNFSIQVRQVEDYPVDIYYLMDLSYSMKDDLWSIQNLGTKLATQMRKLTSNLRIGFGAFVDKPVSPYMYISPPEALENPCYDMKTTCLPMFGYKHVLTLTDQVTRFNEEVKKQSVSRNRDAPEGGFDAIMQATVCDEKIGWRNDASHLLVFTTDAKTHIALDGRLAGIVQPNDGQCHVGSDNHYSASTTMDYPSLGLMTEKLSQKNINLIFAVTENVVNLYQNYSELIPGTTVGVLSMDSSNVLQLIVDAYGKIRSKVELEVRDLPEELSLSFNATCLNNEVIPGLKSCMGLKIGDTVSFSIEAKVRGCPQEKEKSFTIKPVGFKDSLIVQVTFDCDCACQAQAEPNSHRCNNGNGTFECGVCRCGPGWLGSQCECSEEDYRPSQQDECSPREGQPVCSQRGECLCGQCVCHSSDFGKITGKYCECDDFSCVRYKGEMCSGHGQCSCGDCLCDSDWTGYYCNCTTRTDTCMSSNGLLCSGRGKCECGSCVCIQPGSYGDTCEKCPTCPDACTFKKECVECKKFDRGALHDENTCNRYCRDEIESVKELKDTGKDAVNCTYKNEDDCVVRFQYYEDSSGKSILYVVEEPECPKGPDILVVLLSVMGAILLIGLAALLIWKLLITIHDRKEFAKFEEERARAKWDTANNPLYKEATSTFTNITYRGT
Integrin alpha-V/beta-3, sequence (P06756 31-889 limits assumed): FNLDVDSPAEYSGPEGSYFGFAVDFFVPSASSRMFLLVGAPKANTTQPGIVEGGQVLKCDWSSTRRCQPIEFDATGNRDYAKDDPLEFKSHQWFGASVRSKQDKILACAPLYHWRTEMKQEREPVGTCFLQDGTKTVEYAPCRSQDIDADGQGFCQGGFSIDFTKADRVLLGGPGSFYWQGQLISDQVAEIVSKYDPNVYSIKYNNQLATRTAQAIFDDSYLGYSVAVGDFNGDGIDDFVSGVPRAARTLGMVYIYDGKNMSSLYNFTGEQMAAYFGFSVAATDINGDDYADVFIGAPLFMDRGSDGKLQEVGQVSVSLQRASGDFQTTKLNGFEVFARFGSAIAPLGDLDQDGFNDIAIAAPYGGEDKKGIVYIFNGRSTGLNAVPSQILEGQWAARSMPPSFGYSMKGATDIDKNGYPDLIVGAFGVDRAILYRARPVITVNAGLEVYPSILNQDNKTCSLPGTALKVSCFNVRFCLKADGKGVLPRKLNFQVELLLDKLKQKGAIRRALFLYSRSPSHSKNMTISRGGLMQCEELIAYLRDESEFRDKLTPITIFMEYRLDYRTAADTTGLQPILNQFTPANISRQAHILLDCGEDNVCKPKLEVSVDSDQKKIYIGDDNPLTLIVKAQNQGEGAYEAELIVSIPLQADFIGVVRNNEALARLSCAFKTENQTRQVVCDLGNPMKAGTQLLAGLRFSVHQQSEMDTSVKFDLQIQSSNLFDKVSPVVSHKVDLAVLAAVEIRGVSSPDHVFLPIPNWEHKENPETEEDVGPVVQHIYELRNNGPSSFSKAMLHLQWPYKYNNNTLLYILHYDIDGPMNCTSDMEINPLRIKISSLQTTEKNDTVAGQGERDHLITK
Integrin alpha-V/beta-3, sequence (P06756 891-1048 limits assumed): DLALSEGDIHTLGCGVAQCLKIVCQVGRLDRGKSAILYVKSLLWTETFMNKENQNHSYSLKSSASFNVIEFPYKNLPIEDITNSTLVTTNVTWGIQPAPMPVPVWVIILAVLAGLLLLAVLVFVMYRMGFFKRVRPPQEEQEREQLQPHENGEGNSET

The term inhibition denotes the drop in the measured response relative to a control, in per cent. Usually IC50 stands for the concentration that inhibits the measured activity by half. Read a low IC50 as inhibition by little substance. Consider `Cc1ccccc1NC(=O)Nc1ccc(CC(=O)N[C@@H](CC(C)C)C(=O)N2CCC(C(=O)O)CC2)cc1`, for which the inhibition in series [1] worked out at 96%. The same compound had an IC50 in series [2] of 4.7 µM.
As to `Cc1ccccc1NC(=O)Nc1ccc(CC(=O)N[C@@H](CC(C)C)C(=O)N2CCCC(CCC(=O)O)C2)cc1` (stereo partly drawn), in series [1], the inhibition was 77%. In addition, the IC50 in series [2] worked out at 6.74 µM.
Broadly, the logP is a log measure of how a compound divides between an organic and an aqueous phase. Regarding `Cc1ccccc1NC(=O)Nc1ccc(CC(=O)N[C@@H](CC(C)C)C(=O)N[C@H](C)CC(=O)O)cc1`, in series [3], the logP turned out to be 1.72.
In general, half-life refers to the time in which the quantity being followed falls by half. The term Cmax denotes the highest concentration seen after dosing. The AUC is the area under the concentration-time curve, a measure of exposure. `Cc1ccccc1NC(=O)Nc1ccc(CC(=O)N[C@@H](CC(C)C)C(=O)N2CCCCC2CC(=O)O)cc1` (stereo partly drawn): the figures for the IC50 in series [4], in series [5] and in series [2] were greater than 50 µM, greater than 200 µM and 0.3 µM, respectively. In series [1], this compound came in with an inhibition of 100%. Besides, the half-life in series [6] was 48 min. The compound further registered a Cmax in series [7] of 1440 ng/mL. The AUC in series [8] was determined as 955 ng·h/mL. The compound further came in with a logP in series [3] of 1.89.
As for `Cc1ccccc1NC(=O)Nc1ccc(CC(=O)N[C@@H](CC(C)C)C(=O)N2CCCCC2C(=O)O)cc1` (stereo partly drawn), the inhibition in series [1] was 49%. This compound gave an IC50 in series [2] of 10 µM.
The compound `Cc1ccccc1NC(=O)Nc1ccc(CC(=O)N[C@@H](CC(C)C)C(=O)N2CCC(CC(=O)O)CC2)cc1` came in with an inhibition in series [1] of 98%. The IC50 in series [2] was found to be 0.55 µM.
For `Cc1ccccc1NC(=O)Nc1ccc(CC(=O)N[C@@H](CC(C)C)C(=O)N2CCCC(CC(=O)O)C2)cc1` (stereo partly drawn), in that order: 55% and 7.2 µM.
For `Cc1ccccc1NC(=O)Nc1ccc(CC(=O)N[C@@H](CC(C)C)C(=O)N2CCCCC2C(C(=O)O)c2ccccc2)cc1` (stereo partly drawn), in that order: 99% and 4.96 µM.
With `Cc1ccccc1NC(=O)Nc1ccc(CC(=O)N[C@@H](CC(C)C)C(=O)N2CCCC(C(=O)O)C2)cc1` (stereo partly drawn), the inhibition in series [1] was determined as 25%. This compound also gave an IC50 in series [2] greater than 10 µM.

Source of the values: ChEMBL document CHEMBL1133854, “Discovery and evaluation of piperidinyl carboxylic acid derivatives as potent alpha(4)beta(1) integrin antagonists” (Bioorg Med Chem Lett, 2001).
